Here are results for 3 compounds from patent US9260417B2, “Therapeutic methods and compositions involving allosteric kinase inhibition” (AMITECH THERAPEUTIC SOLUTIONS, INC., priority 2010, dated 2016).

Assay [1] addresses BRAF (Homo sapiens (Human), UniProt P15056). As to the kind of experiment: In vitro kinase panel (SelectScreen). Format: biochemical.
Description: (§2) In vitro kinase screen and competitive binding assay. […] 11-point Kd curves were determined for hits identified during the initial screen.
For assay [2], the target named is PDGFRB (Homo sapiens (Human), UniProt P09619). As to the kind of experiment: KINOMEscan competitive binding assay.
Description: (§3) In vitro kinase screen and competitive binding assay. […] For the competitive binding assay, test compounds were screened at 10 μM against 70 diverse kinase targets for competitive binding using the KINOMEscan™ technology (Ambit Biosciences) (Karaman, et al. (2008) Nature biotechnology 26:127-132). 11-point Kd curves were determined for hits identified during the initial screen.
In assay [3] the target is ABL1 (Homo sapiens (Human), UniProt P00519). Nature of the assay: In vitro kinase panel (SelectScreen). Type of assay: biochemical.
Description: as §2
Assay [4] addresses EGFR L858R (Homo sapiens (Human), UniProt P00533, L858R). Nature of the assay: In vitro kinase panel (SelectScreen). Format: biochemical.
Description: as §2
Assay [5] concerns VSMCs. As to the kind of experiment: XTT viability assay in VSMCs. The settings on record: 72 h, full growth medium containing 10% FBS; read-out: EC50, VSMC viability. Format: cell-based, human. On the procedure: FIG. 1A-1F illustrate molecular modeling and assay screening to compounds for dual targeting of PDGFRβ and RAF. (FIG. 1A) Molecular modeling of the amino-triazole based small molecules in PDGFRβ and RAF, respectively. […] A homology model of PDGFRβ was created with a structurally-related family member (VEGFR2, PDB 1y6b). […] To autophosphorylation, immunoblots were carried out with a phospho-tyrosine antibody. Membranes were stripped and reprobed for total PDGFRβ levels. […] (FIG. 1D) Structure activity relationships of the amino-triazole based small molecules comparing both PDGFRβ and B-RAF. […] Curves represent the average of 3 separate experiments, error bars represent ±SEM.
For XTT assays, cells were grown in 96-well plates overnight and all assays were conducted in growth medium will full serum and additives. […] Dose-response curves were plotted using GraphPad Prism software and EC50s were calculated using this program.
A general note: Tetrazolium dyes change colour on reduction, which living cells bring about.

The target of assay [6] is EGFR L861Q (Homo sapiens (Human), UniProt P00533, L861Q). Nature of the assay: In vitro kinase panel (SelectScreen). Format: biochemical.
Description: as §2
Assay [7] has as its target B-RAF/C-RAF heterodimerization (Homo sapiens (Human), UniProt P15056). As to the kind of experiment: B-RAF/C-RAF heterodimerization in HUVECs (immunoprecipitation/Western). The settings on record: ECs stimulated with bFGF or VEGF. Format: cell-based.
Assay [8] concerns the target PDGFRA (Homo sapiens (Human), UniProt P16234). As to the kind of experiment: KINOMEscan competitive binding assay.
Description: as §3
Assay [9] concerns the target FLT3 (Homo sapiens (Human), UniProt P36888). As to the kind of experiment: KINOMEscan competitive binding assay.
Description: as §3
For assay [10], the system named is VEGF-C induced lymphangiogenesis. Nature of the assay: Lymph node lymphangiogenesis model (VEGF-C Matrigel). Format: in vivo, mice. Conditions: 200 μl of 5.25 mg/ml ip twice daily, 7 days. On the procedure: (FIG. 12A) Images of local lymph node lymphangiogenesis model between saline and VEGF-C matrigel.
Lymphangiogenesis assays were performed by subcutaneously injecting 350 μl of cold Matrigel containing saline or […] of VEGF-C(R&D Systems, Minneapolis, Minn.) into wild-type C57B1/6 mice. […] After 7 days, lymph nodes were removed, embedded in OCT, frozen and sectioned. Thin sections (5 μm) were fixed in ice cold acetone for five minutes, permeabilized in 0.1% Triton X-100 in phosphate buffered saline (PBS), blocked in 8% normal donkey serum diluted in PBS for 1.5 hours at room temperature and then incubated with 2 μg/ml anti-murine Lyve-1 (RDI-103PA50) in 8% normal donkey serum diluted in saline overnight at 4° C. After extensive washing, slides were incubated with 1 μg/ml cross-absorbed donkey anti-rabbit IgG (H+L) conjugated with Alexa Fluor 488 (Invitrogen). Slides were counterstained with DAPI. Coverslips were mounted with Dako Cytomation fluorescent mounting medium (Dako Corporation, Carpinteria, Calif.). At least five microscopic fields per tissue section/mouse were analyzed for quantification studies.

The subject of assay [11] is tumor lines. Nature of the assay: Tumor cell viability, summary over tumor lines. Type of assay: cell-based. Conditions: summary of Table 5.
For assay [12], the target named is RAF1 (Homo sapiens (Human), UniProt P04049). Nature of the assay: KINOMEscan competitive binding assay. The settings on record: 10 uM.
Assay [13] deals with PFTK1 (Homo sapiens (Human), UniProt O94921). Nature of the assay: KINOMEscan competitive binding assay. The settings on record: 10 uM.
For assay [14], the system named is NCI60 panel. Nature of the assay: NCI60 panel growth inhibition. Format: cell-based. The settings on record: average across NCI60 panel; read-out: average growth inhibitory concentration (GI50).
Assay [15] deals with CHL-1. Nature of the assay: Tumor cell viability. Type of assay: cell-based. Conditions: Melanoma CHL-1. The protocol:
(§1) For XTT assays, cells were grown in 96-well plates overnight and all assays were conducted in growth medium will full serum and additives. Compounds were serially diluted in DMSO and then further diluted into the medium to give the appropriate concentration while minimizing precipitation associated with serial diluting in medium alone Inhibitors were added for 72 h and cell viability was quantified at 450 nm after the addition of 1 mg/ml XTT solution (Sigma-Aldrich) in phenol-red free DMEM medium containing […] (Sigma-Aldrich). Dose-response curves were plotted using GraphPad Prism software and EC50s were calculated using this program.

Assay [16] relates to R40P. As to the kind of experiment: Tumor cell viability. Type of assay: cell-based. Conditions: Pancreatic (mouse spontaneous model) R40P, K-Ras. The protocol:
as §1

Assay [17] deals with SK-MEL-28. As to the kind of experiment: Tumor cell viability. The settings on record: Melanoma SK-MEL-28, B-RAF V600E. Type of assay: cell-based. The protocol:
as §1

Assay [18] relates to HT29. As to the kind of experiment: Tumor cell viability. Conditions: Colon HT29, B-RAF V600E. Format: cell-based. On the procedure: as §1
For assay [19], the system named is MCF7. As to the kind of experiment: Tumor cell viability. Format: cell-based. The settings on record: Breast MCF7, PI3K. The protocol:
as §1

The test system of assay [20] is SK-MEL-2. Nature of the assay: Tumor cell viability. Conditions: Melanoma SK-MEL-2, N-Ras. Type of assay: cell-based. On the procedure: as §1
Assay [21] has as its target CRAF S338 (Mus musculus (Mouse), UniProt Q99N57). Nature of the assay: CRAF S338 phosphorylation in R40P cells (Western). Format: cell-based. The settings on record: 12 h, sorafenib 5 μM, compound 6 5, 2.5, 1.25 μM. The protocol: R40P cells are derived from a spontaneous pancreatic adenocarcinoma mouse model which expresses K-ras^G12D while p16/Ink4a/ARF is lost. […] At this time the cells were lysed and protein levels were quantified by BCA analysis. The lysates were then loaded on an SDS-PAGE gel and transferred to nitrocellulose for Western blotting. Immunoblotting was performed with the following antibodies: pMEK1/2 S217/S221 (Cell Signaling), pCRAF S338 (Cell Signaling), and total CRAF (BD Biosciences). Chemilluminescence was used for detection on film.

Assay [22] has as its target PAK1 (Homo sapiens (Human), UniProt Q13153). Nature of the assay: KINOMEscan competitive binding assay. Conditions: 10 uM.
Description: For the competitive binding assay, test compounds were screened at 10 μM against 70 diverse kinase targets for competitive binding using the KINOMEscan™ technology (Ambit Biosciences) (Karaman, et al. (2008) Nature biotechnology 26:127-132). 11-point Kd curves were determined for hits identified during the initial screen.
Assay [23] concerns HCT116. Nature of the assay: Tumor cell viability. Format: cell-based, human. The settings on record: Colon HCT116, K-Ras. The protocol: as §1
Assay [24] relates to MDA-MB231. As to the kind of experiment: Tumor cell viability. Format: cell-based, human. Conditions: Breast AC MDA-MB231, B-RAF/Ras. On the procedure:
as §1

Take `Nc1cc(Oc2ccc(-c3nnc(Nc4cccc(C(F)(F)F)c4)[nH]3)cc2)ncn1` [Compound 3]: the “% Inhibition at 10 μM” value is given as 17% in assay [1], 4% in [3], −3% in [4] and −1% in assay [6]. Besides, the figures for the Kd in [2] (PDGFRβ), in [8] (PDGFRα) and in assay [9] were 40 nM, 32 nM and 1.4 nM, respectively. Also, the EC50 in [5] was 15000 nM. In assay [7], the B-RAF/C-RAF heterodimer formation result is on record as “had no effect”.

For `CSc1nc(N)cc(Oc2ccc(-c3nnc(Nc4cccc(C(F)(F)F)c4)[nH]3)cc2)n1` [Compound 6], the “% Inhibition at 10 μM” value in assay [1] is listed as −1%; in assay [3], 3%; in [4], −10%; in assay [6] it was −4%. The “lymphangiogenesis in lymph nodes” value in assay [10] was “clearly showed inhibition of lymphangiogenesis”. Besides, the “% Control” value amounted to 0.5% in assay [2] (10 uM, PDGFRB); 52% in [12]; 71% in [13]; 0.25% in assay [8] (10 uM, PDGFRA); 100% in assay [22]; 2.8% in assay [9] (10 uM). Besides, the “times more potent than sorafenib” value in assay [11] is given as 15-100 times. Besides, the EC50 was 100 to 600 nM in [11] (read-out: EC50 in wide range of tumor lines); 590 nM in [5]; 100 nM in assay [15]; 660 nM in [16]; 400 nM in [17]; 620 nM in assay [18]. The EC50 in assay [19] was 680 nM; in [20] it was 140 nM; in [23] it was 400 nM; in assay [24], 480 nM. For the same compound, the GI50 in assay [14] amounted to 490 nM. For the same compound, in assay [7], the B-RAF/C-RAF heterodimer formation entry is listed as “completely inhibited”. In addition, the “phosphorylation on CRAF S338” value in [21] is recorded as “does not promote this increase”.

Turning to `CNC(=O)c1cc(Oc2ccc(NC(=O)Nc3ccc(Cl)c(C(F)(F)F)c3)cc2)ccn1` [sorafenib, reference compound], the EC50 in [15] (Homo sapiens) is 6100 nM; in assay [16] it was 9430 nM; in assay [17] (Homo sapiens), 17600 nM; in [18] (Homo sapiens, HT-29), > 20000 nM; in assay [19] (Homo sapiens), > 20000 nM; in assay [20] (Homo sapiens), 14300 nM. Moreover, the EC50 in assay [23] (Homo sapiens, HCT-116) is 8210 nM; in assay [24] (Homo sapiens, MDA-MB-231), > 10000 nM. For the same compound, in [21], the “phosphorylation on CRAF S338” value is recorded as “induces an increase”.

As a reminder, the % Inhibition is the drop in the measured response relative to a control, in per cent. In general, Kd refers to the equilibrium constant for the complex coming apart. By EC50 is commonly meant the concentration giving half of the maximal effect.
